According to patent publication US4382958A, “Secondary amines and compositions for treatment of hypoglycaemia or obesity” (priority 1980, dated 1983):
Read-outs that look alike come from different tables or passages of the source.

Key:
Female CFLP mice [1] = assay: Effect on energy expenditure and food intake of mice; type: in vivo; conditions: Mus musculus, % of mice dosed with water; for response vs control in vivo at 18.5 mg/kg: 18.5 mg/kg po; for response vs control in vivo at 24.5 mg/kg: 24.5 mg/kg po; for response vs control in vivo at 22.2 mg/kg: 22.2 mg/kg po
Protocol: Female CFLP mice each weighing approximately 24 g were given food and water ad lib before and during the experiment. The compounds were dissolved in water by addition of one mole of hydrochloric acid per mole of compound and these solutions were administered orally to each of 12 mice. A further 12 mice were dosed orally with water. The mice were placed in boxes through which air was drawn and the oxygen content of the air leaving the boxes was measured. The energy expenditure of the mice was calculated for 21 hours after dosing from the volume of air leaving the boxes and its oxygen content following the principles described by J. B. de V. Weir, J. Physiol. […] The food intake of the mice was measured over this same period of 21 hours. The results are expressed as a percentage of the mean food intake or rate of energy expenditure of the mice dosed with water.

Female CFLP mice [2] = assay: Hypoglycaemic activity: blood glucose of fasted mice after subcutaneous glucose; type: in vivo; conditions: Mus musculus, 2 hour period after glucose, vs control mice given water, read-out: REDUCTION IN AREA UNDER BLOOD GLUCOSE CURVE (%); for inhibition in vivo at 1 µmol/kg: 1.0 μ mol/kg oral
Protocol: Female CFLP mice, weighing approximately 25 g, were fasted for 24 hours prior to the study. The compounds under study were administered orally as an aqueous solution to each of 8 mice. 30 minutes later a blood sample ([…]) was obtained from the tail for the analysis of blood glucose. Immediately after taking this blood sample, glucose (1 g/kg body weight) was administered subcutaneously to each mouse. 8 mice were given water as a control. Blood samples were then obtained from each mouse at 30 minute intervals for 120 minutes.
Compounds that produced a significant (P<0.05) reduction on blood glucose, compared with control mice given water, at any time interval, were considered active. The area under the blood glucose curve over the 2 hour period after the administration of the glucose was calculated for each compound and compared with the value for control animals.

rat ear = assay: Topical anti-inflammatory activity: croton oil inflammation of the rat ear; type: in vivo; conditions: 6 hours, activity = significant (5% level) reduction in ear weight vs non-drug treated control
Protocol: The method used is based on that described by G. Tonelli et al (Endocrinology, 77, 625-634, 1965). An inflammation is induced in the rat ear by the application of 50 μl of a 1% solution of croton oil in tetrahydrofuran, test compounds being dissolved in the irritant vehicle. After 6 hours the inflammation is assessed by killing the animals and weighing the ears. Topical anti-inflammatory activity of a compound is generally considered to be shown when a significant (5% level) reduction in ear weight is seen compared to non-drug treated control.

Rat hearts = assay: Cardiac activity: rat hearts perfused by the Langendorff procedure
Protocol: Rat hearts were perfused by the Langendorff procedure.
Hearts were dissected free within 30 seconds of death and reverse perfused via the aorta and coronary vessels with Krebs-Ringer bicarbonate solution (pH 7.4, 37° C.) gassed with 95% oxygen: 5% carbon dioxide at a flow rate between 8-12 cm^3 /minute. Responses were observed after injection of drug dissolved in isotonic saline into the perfusion media.
Results are expressed as a percentage of the maximum response due to salbutamol.

[3] = tested on: Platelet aggregation (response to collagen); assay: Platelet aggregation inhibition activity: response to intravenous collagen in mice; type: in vivo; conditions: 1 μ mol/kg po; two hours before collagen 400 μg/kg i.v.
Protocol: Male CFLP mice (ca 20 g, n=8) were dosed orally with compound or vehicle (controls) after an overnight fast. Two hours later each mouse received an intravenous dose of collagen (400 μg/kg, pH 6-6.6). Exactly 30 sec. after injection of collagen, each mouse was placed in a chamber of CO2 until respiration ceased. […] Each concentration was expressed as a percent of that obtained in a tail blood sample taken immediately before injection of collagen.

genetically obese mice = assay: Anti-obesity activity: carcass lipid of genetically obese mice after oral gavage daily for 28 days; type: in vivo; conditions: 12.2 mg/kg p.o. daily for 28 days, control 18.75
Protocol: The compound of Example 5 was administered by oral gavage in water or carboxymethyl-cellulose suspension to genetically obese mice daily for 28 days. At the end of the time the carcass composition was determined.

[4] = 0-3h, read-out: MEAN ENERGY EXPENDITURE (%) 0-3h
[5] = 0-21h, read-out: MEAN ENERGY EXPENDITURE (%) 0-21h
[6] = over 21 hours, read-out: MEAN FOOD INTAKE (%)
[7] = 30 μg added to perfusate, percentage of the maximum response due to salbutamol, read-out: HEART RATE
[8] = 30 μg added to perfusate, percentage of the maximum response due to salbutamol, read-out: HEART TENSION

Row | SMILES | response vs control in vivo at 18.5 mg/kg (Female CFLP mice [1]; [4]) | response vs control in vivo at 18.5 mg/kg (Female CFLP mice [1]; [5]) | response vs control in vivo at 18.5 mg/kg (Female CFLP mice [1]; [6]) | inhibition in vivo at 3 µmol/kg (Female CFLP mice [2]; 3.0 μ mol/kg oral) | ACTIVITY (topical anti-inflammatory) (rat ear; 2 mg/rat ear topical) | Emax (Rat hearts; [7]) | Emax (Rat hearts; [8]) | response vs control in vivo at 24.5 mg/kg (Female CFLP mice [1]; [4]) | response vs control in vivo at 24.5 mg/kg (Female CFLP mice [1]; [5]) | response vs control in vivo at 24.5 mg/kg (Female CFLP mice [1]; [6]) | inhibition in vivo at 1 µmol/kg (Female CFLP mice [2]) | % INHIBITION OF RESPONSE TO COLLAGEN [3] | g LIPID/MOUSE, TREATED (genetically obese mice) | response vs control in vivo at 22.2 mg/kg (Female CFLP mice [1]; [4]) | response vs control in vivo at 22.2 mg/kg (Female CFLP mice [1]; [5]) | response vs control in vivo at 22.2 mg/kg (Female CFLP mice [1]; [6]) | ACTIVITY (topical anti-inflammatory) (rat ear; 0.5 mg/rat ear topical) | Emax (Rat hearts; read-out: HEART TENSION)
1 | CC(Cc1ccc(OCCO)cc1)NCC(O)c1ccccc1F (stereo not shown) [Example 1, N-[2-(4-(2-Hydroxyethoxy)phenyl)-1-methylethyl]-2-hydroxy-2-(2-fluorophenyl)ethanamine] | 176% | 128% | 70% | 61% | Active | 63% | 53% | – | – | – | – | – | – | – | – | – | – | –
2 | CC(Cc1ccc(OCCCCCCO)cc1)NCC(O)c1cccc(C(F)(F)F)c1 (stereo not shown) [Example 5, N-[2-(4-(6-Hydroxyhexyloxy)phenyl)-1-methylethyl]-2-hydroxy-2-(3-trifluoromethylphenyl)-ethanamine] | – | – | – | – | – | 0% | 0% | 213% | 129% | 103% | 59% | 47% | 15.80 g LIPID/MOUSE | – | – | – | – | –
3 | CC(Cc1ccc(OCCCO)cc1)NCC(O)c1cccc(C(F)(F)F)c1 (stereo not shown) [Example 4, N-[2-(4-(3-Hydroxypropoxy)phenyl)-1-methylethyl]-2-hydroxy-2-(3-trifluoromethylphenyl)-ethanamine] | – | – | – | – | – | 7% | – | – | – | – | 31% | – | – | 179% | 121% | 75% | Active | 0%
